Measurements from PubChem BioAssay (NCI).
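Cells were grown in 96-well plates and exposed to each compound for 48 hours at five concentrations; endpoints were interpolated linearly between bracketing concentrations, or set to the highest concentration if not reached. GI50 marks 50% less growth. At the TGI there is no net growth.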

What was measured:
Assay in all cases: NCI tumour cell line growth inhibition, 48 h
786-0 renal = tested on: 786-0 renal
HCT-116 colon = tested on: HCT-116 colon
HL-60(TB) leukemia = tested on: HL-60(TB) leukemia
HOP-62 NSCLC = tested on: HOP-62 NSCLC
K-562 leukemia = tested on: K-562 leukemia
NCI-H23 lung = tested on: NCI-H23 lung
NCI/ADR-RES ovarian = tested on: NCI/ADR-RES ovarian
RXF 393 renal = tested on: RXF 393 renal
SNB-75 CNS = tested on: SNB-75 CNS
SR leukemia = tested on: SR leukemia

Row | SMILES | TGI (786-0 renal) [µM] | TGI (HCT-116 colon) [µM] | TGI (HL-60(TB) leukemia) [µM] | TGI (HOP-62 NSCLC) [µM] | TGI (K-562 leukemia) [µM] | TGI (NCI-H23 lung) [µM] | TGI (NCI/ADR-RES ovarian) [µM] | TGI (RXF 393 renal) [µM] | TGI (SNB-75 CNS) [µM] | TGI (SR leukemia) [µM] | GI50 (HCT-116 colon) [µM] | GI50 (HL-60(TB) leukemia) [µM] | GI50 (HOP-62 NSCLC) [µM] | GI50 (K-562 leukemia) [µM] | GI50 (NCI-H23 lung) [µM] | GI50 (NCI/ADR-RES ovarian) [µM] | GI50 (RXF 393 renal) [µM] | GI50 (SNB-75 CNS) [µM] | GI50 (SR leukemia) [µM]
1 | CC(C)=CCC[C@@H](C)C1=C(O)C(Nc2ccccc2F)=C(C)C(=O)C1=O | > 100 | 47.6 | 5.61 | > 55.7 | > 100 | > 56.8 | 23 | > 57.1 | > 78.8 | > 100 |  |  |  |  |  |  |  |  | 
2 | Nc1ccc(S(=O)(=O)c2ccc(N=[N+]([O-])c3ccc(S(=O)(=O)c4ccc(N)cc4)cc3)cc2)cc1 | 60.3 | > 100 | > 100 | > 54.3 | > 100 | > 82.8 | > 100 | 57.8 | 37.1 | > 100 |  |  |  |  |  |  |  |  | 
3 | CCC(=O)n1c(=O)n(-c2ccc([N+](=O)[O-])cc2)c(=O)n1C(=O)CC | > 100 | > 100 | > 100 | > 100 | > 100 | > 100 | > 100 | > 100 | > 100 | > 100 |  |  |  |  |  |  |  |  | 
4 | CC(=O)O[C@@H]1CC2[C@@H](CCC3Cc4nc5c(nc4C[C@@]32C)CC2CC[C@@H]3C(CC[C@@]4(C)C3CC[C@@H]4C(C)CCCC(C)C)[C@@]2(C)C5)C2C[C@@H]3OC4(CCC(C)CO4)C(C)[C@@H]3[C@]21C (stereo partly specified) | > 100 | > 100 | > 100 | > 100 | > 100 | > 100 | > 100 | 50.3 | 37.2 | > 100 |  |  |  |  |  |  |  |  | 
5 | CCOc1ccc(-n2c(=O)n3c(Nc4ccc(Cl)cc4)nc4c(c(=O)n(C)c(=O)n4C)n3c2=O)cc1 | > 100 | 40.2 | 51.7 | > 100 | 84 | 64.2 | > 100 | 43.2 | 69.1 | 51.6 |  |  |  |  |  |  |  |  | 
6 | CC1(C)OCC(C2OC(=O)C(OCc3ccccc3)=C2OCc2ccccc2)O1 (stereo unspecified) | > 100 | > 100 | 52 | > 100 | > 100 | 92.5 | > 100 | > 100 | > 100 | > 100 |  |  |  |  |  |  |  |  | 
7 | CC1=NN(c2cccc(Cl)c2)C2(C1)SCC(=O)N2c1nc2ccccc2s1 (stereo unspecified) | 56.1 | 36.7 | 43.1 | 58.3 | 48.9 | 84.5 | > 100 | 44.9 | 43.5 | 37.8 |  |  |  |  |  |  |  |  | 
8 | CCC(C)N1CN(c2ccccc2)C2(CCN(CCCC(=O)c3ccc(F)cc3)CC2)C1=O (stereo unspecified) | > 100 | 3.16 | 46 | 4.51 | > 100 | 14.1 | > 100 | 30 | 38.3 | 23.3 |  |  |  |  |  |  |  |  | 
9 | Nc1nc(SCc2ccccc2[N+](=O)[O-])c2[nH]cnc2n1 | > 100 | > 100 | > 86.1 | > 100 | > 100 | > 100 | > 100 | > 94 | > 70.4 | > 100 |  |  |  |  |  |  |  |  | 
10 | O=C1O[C@H](COC(=O)c2ccccc2)[C@@H](OC(=O)c2ccccc2)C=C1OC(=O)c1ccccc1 | 33.7 | 32 | 27.1 | 39.4 | 57.4 | 42.6 | 38.8 | 31.4 | > 100 | 46.9 |  |  |  |  |  |  |  |  | 
11 | COc1ccc(C2c3c(-c4ccccc4)nn(-c4ccccc4)c3Oc3ncn(N)c(=N)c32)cc1OC (stereo unspecified) | 3 | 3.24 | > 100 |  | > 100 | 6.66 | 6.66 | 4.53 | 3.92 | > 26.6 |  |  |  |  |  |  |  |  | 
12 | O=C1CSC(c2c(O)ccc3ccccc23)N1n1c(=S)[nH]nc(/C=C/c2c(O)ccc3ccccc23)c1=O (stereo unspecified) | 14.5 | 16.6 | 0.874 | 22 | 19.3 | 23 | 14.7 | 13.7 | 11.4 | 10.9 |  |  |  |  |  |  |  |  | 
13 | O=C(O)C1C2CCC(C2)C1c1ccccc1 (stereo unspecified) | > 100 | > 100 | > 100 | > 100 | > 100 | > 100 | > 100 | > 100 | > 100 | > 100 |  |  |  |  |  |  |  |  | 
14 | COC(=O)C1(Cc2ccc3c(c2)CCC3)Cc2cc3c(cc2C1=O)CCC3 (stereo unspecified) | > 46.4 | > 46.4 | 17.9 | > 46.4 | > 46.4 | > 46.4 | > 46.4 | > 46.4 | > 46.4 | 33 |  |  |  |  |  |  |  |  | 
15 | CNc1nc(=O)c(C#N)c(-c2ccc(C)cc2)s1 | > 100 | > 100 | > 100 |  | > 100 | > 100 | > 100 | > 100 | > 100 | > 100 |  |  |  |  |  |  |  |  | 
16 | CCNC(=O)CCCCC(=O)c1c(C)[nH]c(/C=C2\N=C(c3ccc[nH]3)C=C2OC)c1C |  | 23.6 | 5.41 | 2.88 | > 100 | 24.5 | 10.8 | 8.41 | 24.4 | 32.8 | 2.33 | 2.06 | 1.1 | 3.23 | 4.5 | 2.94 | 2.97 | 3.26 | 1.65
